What was measured:
[1] = In vivo kinetics experiment (radioactivity distribution); parameters: species or system Wistar male rat; conditions: rat; for Adrenal gland/blood ratio of radioactivity accumulation / Adrenal gland/fat ratio of radioactivity accumulation / Adrenal gland/kidney ratio of radioactivity accumulation / Adrenal gland/liver ratio of radioactivity accumulation / Adrenal gland/muscle ratio of radioactivity accumulation / Adrenal gland/small intestine ratio of radioactivity accumulation / Radioactivity distribution Adrenal gland / Radioactivity distribution Bladder (including urine) / Radioactivity distribution Blood / Radioactivity distribution Fat / Radioactivity distribution Heart / Radioactivity distribution Kidney / Radioactivity distribution Large intestine / Radioactivity distribution Liver / Radioactivity distribution Lung / Radioactivity distribution Muscle (lower limbs) / Radioactivity distribution Remaining whole body / Radioactivity distribution Small intestine / Radioactivity distribution Spleen / Radioactivity distribution Stomach / Radioactivity distribution Testis / Radioactivity distribution Thyroid gland / Radioactivity distribution Whole brain: caudal vein
Procedure, shortened: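 Tissue radioactivity (% ID/g) and adrenal-to-blood, liver, kidney, small intestine, muscle and fat ratios determined at 10, 30 and 60 min post-dose. Tracers (approximately 1 to 3.7 MBq, saline with 1 w/v % ascorbic acid) injected i.v. into caudal vein of anesthetized 9-week male Wistar rats; organs excised, weighed, counted.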

[2] = test system: human adrenal gland section expressing aldosterone-producing adenoma; assay: In vitro autoradiography using human adrenal adenoma; assay type: binding
Procedure, shortened: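 Autoradiography readout: PSL in equal-sized ROIs over adenoma (B2) and normal adrenal cortex (B1), expressed as B2/B1 and decay-corrected using half-life, applied activity and plate contact time. Tissue was surgically excised human adrenal, frozen and cut at 7 μm, incubated 10 min with 5-33 kBq/mL tracer in BSA-containing PBS, then imaged after 16-20 h exposure.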

[3] = Plasma stability evaluation (TLC analysis); assay type: in vitro ADME; conditions: 37° C., 60 minutes
Procedure, shortened: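 TLC analysis, using each compound's synthesis conditions, judged stability after methanol was added and samples were centrifuged to remove protein. Beforehand, each tracer had spent 60 minutes at 37° C in pooled heparinized normal human plasma.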

## FCCn1c(-c2cncc(Cn3ccnc3)c2)nc2cc(F)c([123I])cc21 [[^123I] 400, 5-Fluoro-1-(2-fluoroethyl)-2-[5-(imidazol-1-ylmethyl)pyridin-3-yl]-6-[^123I]iodobenzimidazole]
[1]; Tables 9 to 22
  accumulation of radioactivity in adrenal gland vs blood and peripheral tissues: high accumulation of radioactivity in adrenal gland was observed, in comparison to in blood and peripheral tissues
[1]; 10 min after administration
  Adrenal gland/blood ratio of radioactivity accumulation: 28.34
  Adrenal gland/fat ratio of radioactivity accumulation: 89.23
  Adrenal gland/kidney ratio of radioactivity accumulation: 5.85
  Adrenal gland/liver ratio of radioactivity accumulation: 3.02
  Adrenal gland/muscle ratio of radioactivity accumulation: 54.21
  Adrenal gland/small intestine ratio of radioactivity accumulation: 6.95
  Radioactivity distribution Adrenal gland: 9.09 % ID/g
  Radioactivity distribution Bladder (including urine): 0.32 % ID/g
  Radioactivity distribution Blood: 0.32 % ID/g
  Radioactivity distribution Fat: 0.10 % ID/g
  Radioactivity distribution Heart: 0.63 % ID/g
  Radioactivity distribution Kidney: 1.54 % ID/g
  Radioactivity distribution Large intestine: 0.19 % ID/g
  Radioactivity distribution Liver: 2.98 % ID/g
  Radioactivity distribution Lung: 1.06 % ID/g
  Radioactivity distribution Muscle (lower limbs): 0.17 % ID/g
  Radioactivity distribution Remaining whole body: 0.27 % ID/g
  Radioactivity distribution Small intestine: 1.30 % ID/g
  Radioactivity distribution Spleen: 5.26 % ID/g
  Radioactivity distribution Stomach: 1.03 % ID/g
  Radioactivity distribution Testis: 0.07 % ID/g
  Radioactivity distribution Thyroid gland: 3.54 % ID/g
  Radioactivity distribution Whole brain: 0.02 % ID/g
[1]; 30 min after administration
  Adrenal gland/blood ratio of radioactivity accumulation: 40.26
  Adrenal gland/fat ratio of radioactivity accumulation: 147.73
  Adrenal gland/kidney ratio of radioactivity accumulation: 17.90
  Adrenal gland/liver ratio of radioactivity accumulation: 13.82
  Adrenal gland/muscle ratio of radioactivity accumulation: 110.91
  Adrenal gland/small intestine ratio of radioactivity accumulation: 9.24
  Radioactivity distribution Adrenal gland: 16.93 % ID/g
  Radioactivity distribution Bladder (including urine): 1.35 % ID/g
  Radioactivity distribution Blood: 0.43 % ID/g
  Radioactivity distribution Fat: 0.12 % ID/g
  Radioactivity distribution Heart: 0.49 % ID/g
  Radioactivity distribution Kidney: 0.95 % ID/g
  Radioactivity distribution Large intestine: 0.19 % ID/g
  Radioactivity distribution Liver: 1.24 % ID/g
  Radioactivity distribution Lung: 0.76 % ID/g
  Radioactivity distribution Muscle (lower limbs): 0.15 % ID/g
  Radioactivity distribution Remaining whole body: 0.31 % ID/g
  Radioactivity distribution Small intestine: 1.83 % ID/g
  Radioactivity distribution Spleen: 5.44 % ID/g
  Radioactivity distribution Stomach: 2.24 % ID/g
  Radioactivity distribution Testis: 0.12 % ID/g
  Radioactivity distribution Thyroid gland: 9.97 % ID/g
  Radioactivity distribution Whole brain: 0.02 % ID/g
[1]; 60 min after administration
  Adrenal gland/blood ratio of radioactivity accumulation: 29.41 ± 3.13
  Adrenal gland/fat ratio of radioactivity accumulation: 105.17 ± 28.98
  Adrenal gland/kidney ratio of radioactivity accumulation: 18.87 ± 3.12
  Adrenal gland/liver ratio of radioactivity accumulation: 16.66 ± 3.13
  Adrenal gland/muscle ratio of radioactivity accumulation: 95.38 ± 22.07
  Adrenal gland/small intestine ratio of radioactivity accumulation: 6.64 ± 2.31
  Radioactivity distribution Adrenal gland: 11.65 ± 1.54 % ID/g
  Radioactivity distribution Bladder (including urine): 1.27 ± 0.07 % ID/g
  Radioactivity distribution Blood: 0.40 ± 0.01 % ID/g
  Radioactivity distribution Fat: 0.11 ± 0.02 % ID/g
  Radioactivity distribution Heart: 0.35 ± 0.03 % ID/g
  Radioactivity distribution Kidney: 0.62 ± 0.08 % ID/g
  Radioactivity distribution Large intestine: 0.43 ± 0.19 % ID/g
  Radioactivity distribution Liver: 0.70 ± 0.05 % ID/g
  Radioactivity distribution Lung: 0.60 ± 0.03 % ID/g
  Radioactivity distribution Muscle (lower limbs): 0.12 ± 0.02 % ID/g
  Radioactivity distribution Remaining whole body: 0.33 ± 0.02 % ID/g
  Radioactivity distribution Small intestine: 1.85 ± 0.44 % ID/g
  Radioactivity distribution Spleen: 5.27 ± 0.89 % ID/g
  Radioactivity distribution Stomach: 4.35 ± 0.25 % ID/g
  Radioactivity distribution Testis: 0.15 ± 0.01 % ID/g
  Radioactivity distribution Thyroid gland: 19.76 ± 1.03 % ID/g
  Radioactivity distribution Whole brain: 0.02 ± 0.00 % ID/g
[2]; FIGS. 18 to 31
  accumulation of radioactivity in adrenal gland section (autoradiogram): accumulation of radioactivity was selectively observed in a region in which aldosterone-producing adenoma had been pathologically observed
[2]; section of FIG. 17(a)
  B2/B1 accumulation ratio: 2.89
[2]; section of FIG. 17(a), site 71a
  B2 (PSL value, aldosterone-producing adenoma): 4611
[2]; section of FIG. 17(a), site 72a
  B1 (PSL value, normal adrenal cortex): 1596
[3]
  stability in human plasma: hardly metabolized and decomposed in the plasma
[3]; TLC analysis
  Radiochemical purity after incubation in human plasma: 88%

— patent US10358434B2, “2-(3-pyridinyl)-1H-benzimidazole derivative compound and medicament containing same” (NIHON MEDI-PHYSICS CO., LTD., priority 2014, dated 2019)
